In patent US6245917A, “Crystalline sodium phenytoin monohydrate” (Warner-Lambert Company, priority 1999, dated 2001):

Test: Repeated water uptake study with solvent-free SPM (dichloromethane preparation)
Format: physicochemical
Source text: Study of weight change under controlled humidity conditions, samples were placed in open vials, which were placed in closed controlled-humidity jars. Relative humidities were controlled using saturated aqueous salt solutions: 58% RH, NaBr; 75% RH, (NH4)2 SO4; 76%, sodium acetate; 84% RH, KBr.
A possible cause of the observed weight loss is that some reaction solvent (toluene in this case) from the preparation of SPM remained on the solid and evaporated in the humidity jars. To test this theory, it was decided to prepare SPM, show it to be solvent-free, and repeat the water uptake studies. Dichloromethane was chosen as the organic solvent for the preparation rather than toluene because its lower boiling point should allow it to be removed from the solid more easily and completely. SPM was made by stirring a slurry of SPA and one equivalent of water in dichloromethane for 2 days, then isolation by filtration and air-drying of the solid SPM.
The remainder of the SPM sample was allowed to dry in an open jar under ambient conditions for about 1 week. It was then characterized by XRPD elemental analysis, and Karl Fischer (KF) analysis. The sample appears to be pure SPM containing very little, if any, residual solvent.
Both SPM and SPA increased in weight about 20% when equilibrium was reached (constant weight) at each humidity utilized. The samples were analyzed by XRPD after completion of the water uptake experiments. […] The nature of this form has not been determined.

With O=C1NC(=O)C(c2ccccc2)(c2ccccc2)N1 [SPA, sodium phenytoin anhydrate, reference compound] as the compound, how does the “Percent change based on average of final two weights” value (“Percent change based on average” for short) (58% RH) read?
Its value is “+19%”.

And the sample weight (58% RH, day 0 (starting weight))?
Its sample weight is 1.5087 g.

And the “change in starting weight” value (58% RH, day 1)?
The value was “+0.0263 g”.

What about the sample weight (58% RH, day 1) of the same compound?
Its sample weight is 1.5350 g.

And the “change in starting weight” value (58% RH, day 2)?
The value was “+0.0510 g”.

And the sample weight (58% RH, day 2)?
The sample weight was 1.5597 g.

And the “change in starting weight” value (58% RH, day 3)?
The value was “+0.0793 g”.

What about the sample weight (58% RH, day 3) of the same compound?
Its sample weight is 1.5880 g.

What about the “change in starting weight” value (58% RH, day 4) of the same compound?
Its value is “+0.1011 g”.

And the sample weight (58% RH, day 4)?
Its sample weight is 1.6098 g.

And the “change in starting weight” value (58% RH, day 5)?
Its value is “+0.1111 g”.

And the sample weight (58% RH, day 5)?
The sample weight was 1.6198 g.

What about the “change in starting weight” value (58% RH, day 6) of the same compound?
Its value is “+0.1208 g”.

And the sample weight (58% RH, day 6)?
The sample weight was 1.6295 g.

What about the “change in starting weight” value (58% RH, day 7) of the same compound?
Its value is “+0.1333 g”.

What about the sample weight (58% RH, day 7) of the same compound?
The sample weight was 1.6420 g.

And the “change in starting weight” value (58% RH, day 8)?
Its value is 0.1487 g.

What about the “change in starting weight” value (58% RH, day 10) of the same compound?
Its value is “+0.1797 g”.

What about the “change in starting weight” value (58% RH, day 12) of the same compound?
The value was “+0.2166 g”.

What about the sample weight (58% RH, day 12) of the same compound?
Its sample weight is 1.7253 g.

And the “change in starting weight” value (58% RH, day 13)?
Its value is “+0.2250 g”.

What about the sample weight (58% RH, day 13) of the same compound?
Its sample weight is 1.7337 g.

And the “change in starting weight” value (58% RH, day 14)?
The value was “+0.2338 g”.

And the sample weight (58% RH, day 14)?
The sample weight was 1.7425 g.

What about the “change in starting weight” value (58% RH, day 15) of the same compound?
The value was “+0.2445 g”.

And the sample weight (58% RH, day 15)?
Its sample weight is 1.7532 g.

And the “change in starting weight” value (58% RH, day 16)?
Its value is “+0.2531 g”.

And the sample weight (58% RH, day 16)?
The sample weight was 1.7618 g.

And the “change in starting weight” value (58% RH, day 17)?
Its value is “+0.2593 g”.

What about the sample weight (58% RH, day 17) of the same compound?
The sample weight was 1.7680 g.

And the “change in starting weight” value (58% RH, day 21)?
The value was “+0.2773 g”.

And the sample weight (58% RH, day 21)?
Its sample weight is 1.7860 g.

And the “change in starting weight” value (58% RH, day 23)?
Its value is “+0.2818 g”.

What about the sample weight (58% RH, day 23) of the same compound?
The sample weight was 1.7905 g.

And the “change in starting weight” value (58% RH, day 26)?
Its value is “+0.2818 g”.

What about the “Percent change based on average” value (75% RH) of the same compound?
Its value is “+21%”.

What about the sample weight (75% RH, day 0 (starting weight)) of the same compound?
Its sample weight is 1.5037 g.

And the “change in starting weight” value (75% RH, day 1)?
Its value is “+0.0581 g”.

And the sample weight (75% RH, day 1)?
The sample weight was 1.5618 g.

And the “change in starting weight” value (75% RH, day 2)?
Its value is “+0.1166 g”.

What about the sample weight (75% RH, day 2) of the same compound?
The sample weight was 1.6203 g.

And the “change in starting weight” value (75% RH, day 3)?
Its value is “+0.1625 g”.

And the sample weight (75% RH, day 3)?
Its sample weight is 1.6662 g.

And the “change in starting weight” value (75% RH, day 4)?
The value was “+0.2103 g”.

And the sample weight (75% RH, day 4)?
The sample weight was 1.7140 g.

What about the “change in starting weight” value (75% RH, day 5) of the same compound?
The value was “+0.2501 g”.

And the sample weight (75% RH, day 5)?
Its sample weight is 1.7538 g.

And the “change in starting weight” value (75% RH, day 6)?
The value was “+0.2825 g”.

And the sample weight (75% RH, day 6)?
Its sample weight is 1.7862 g.

What about the “change in starting weight” value (75% RH, day 7) of the same compound?
The value was “+0.3054 g”.

And the sample weight (75% RH, day 7)?
The sample weight was 1.8091 g.

And the “change in starting weight” value (75% RH, day 8)?
The value was “+0.3152 g”.

What about the “change in starting weight” value (75% RH, day 10) of the same compound?
The value was “+0.3165 g”.

What about the “change in starting weight” value (75% RH, day 12) of the same compound?
Its value is “+0.3197 g”.

What about the sample weight (75% RH, day 12) of the same compound?
The sample weight was 1.8234 g.

And the “change in starting weight” value (75% RH, day 13)?
Its value is “+0.3171 g”.

And the sample weight (75% RH, day 13)?
The sample weight was 1.8208 g.

And the “change in starting weight” value (75% RH, day 14)?
The value was “+0.3152 g”.

And the sample weight (75% RH, day 14)?
Its sample weight is 1.8189 g.

And the “change in starting weight” value (75% RH, day 15)?
The value was “+0.3146 g”.

And the sample weight (75% RH, day 15)?
Its sample weight is 1.8183 g.

And the “change in starting weight” value (75% RH, day 16)?
Its value is “+0.3139 g”.

What about the sample weight (75% RH, day 16) of the same compound?
Its sample weight is 1.8176 g.

And the “change in starting weight” value (75% RH, day 17)?
The value was “+0.3117 g”.

What about the sample weight (75% RH, day 17) of the same compound?
The sample weight was 1.8154 g.

And the “Percent change based on average” value (84% RH)?
Its value is “+22%”.

And the sample weight (84% RH, day 0 (starting weight))?
The sample weight was 1.5023 g.

What about the “change in starting weight” value (84% RH, day 1) of the same compound?
The value was “+0.0712 g”.

What about the sample weight (84% RH, day 1) of the same compound?
The sample weight was 1.5735 g.

What about the “change in starting weight” value (84% RH, day 2) of the same compound?
The value was “+0.1330 g”.

What about the sample weight (84% RH, day 2) of the same compound?
Its sample weight is 1.6353 g.

What about the “change in starting weight” value (84% RH, day 3) of the same compound?
The value was “+0.1952 g”.

And the sample weight (84% RH, day 3)?
The sample weight was 1.6975 g.

What about the “change in starting weight” value (84% RH, day 4) of the same compound?
Its value is “+0.2498 g”.

And the sample weight (84% RH, day 4)?
Its sample weight is 1.7521 g.

What about the “change in starting weight” value (84% RH, day 5) of the same compound?
The value was “+0.2949 g”.

And the sample weight (84% RH, day 5)?
The sample weight was 1.7972 g.

What about the “change in starting weight” value (84% RH, day 6) of the same compound?
Its value is “+0.3169 g”.

What about the sample weight (84% RH, day 6) of the same compound?
The sample weight was 1.8192 g.

What about the “change in starting weight” value (84% RH, day 7) of the same compound?
Its value is “+0.3275 g”.

What about the sample weight (84% RH, day 7) of the same compound?
Its sample weight is 1.8298 g.

What about the “change in starting weight” value (84% RH, day 8) of the same compound?
The value was “+0.3301 g”.

And the “change in starting weight” value (84% RH, day 12)?
The value was “+0.3322 g”.

What about the sample weight (84% RH, day 12) of the same compound?
The sample weight was 1.8345 g.

And the “change in starting weight” value (84% RH, day 13)?
The value was “+0.3288 g”.

And the sample weight (84% RH, day 13)?
Its sample weight is 1.8311 g.

What about the “change in starting weight” value (84% RH, day 14) of the same compound?
The value was “+0.3260 g”.

And the sample weight (84% RH, day 14)?
Its sample weight is 1.8283 g.

What about the “change in starting weight” value (84% RH, day 15) of the same compound?
Its value is “+0.3255 g”.

What about the sample weight (84% RH, day 15) of the same compound?
Its sample weight is 1.8278 g.

What about the “change in starting weight” value (84% RH, day 16) of the same compound?
Its value is “+0.3249 g”.

What about the sample weight (84% RH, day 16) of the same compound?
The sample weight was 1.8272 g.

And the “change in starting weight” value (84% RH, day 17)?
The value was “+0.3225 g”.

And the sample weight (84% RH, day 17)?
Its sample weight is 1.8248 g.
